Source: paper PMC5428509, “Irreversible inhibition of BTK kinase by a novel highly selective inhibitor CHMFL-BTK-11 suppresses inflammatory response in rheumatoid arthritis model” (Scientific Reports, 2017)

How the values were obtained:
Assay in all cases: biochemical
Design in all cases: KinomeScan competition binding panel (DiscoveRx), percent of control at 1 uM
Settings in all cases: read-out: Percent Control
[1] = target: T1, ABL1(Q252H)-nonphosphorylated (Homo sapiens, UniProt P00519, Q252H)
T1 construct: nonphosphorylated
Procedure, shortened: (§1)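 Selectivity profiled across 456 kinases/mutants by KinomeScan binding technology.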

ANKK1 = ANKK1 (Homo sapiens, UniProt Q8NFD2)
Procedure, shortened: as §1

CDK4-cyclinD3 = target: T2, CDK4-cyclinD3 (Homo sapiens, UniProt P11802)
T2 construct: cyclinD3
Procedure, shortened: as §1

CLK3 = CLK3 (Homo sapiens, UniProt P49761)
Procedure, shortened: as §1

CSNK2A2 = CSNK2A2 (Homo sapiens, UniProt P19784)
Procedure, shortened: as §1

CTK = target: T3, CTK (Homo sapiens, UniProt P42679)
T3 construct: gene MATK
Procedure, shortened: as §1

DDR2 = DDR2 (Homo sapiens, UniProt Q16832)
Procedure, shortened: as §1

EPHB4 = EPHB4 (Homo sapiens, UniProt P54760)
Procedure, shortened: as §1

ERK1 = target: T4, ERK1 (Homo sapiens, UniProt P27361)
T4 construct: gene MAPK3
Procedure, shortened: as §1

FGFR3(G697C) = FGFR3(G697C) (Homo sapiens, UniProt P22607, G697C)
Procedure, shortened: as §1

INSRR = INSRR (Homo sapiens, UniProt P14616)
Procedure, shortened: as §1

LKB1 = target: T5, LKB1 (Homo sapiens, UniProt Q15831)
T5 construct: gene STK11
Procedure, shortened: as §1

MARK1 = MARK1 (Homo sapiens, UniProt Q9P0L2)
Procedure, shortened: as §1

MERTK = MERTK (Homo sapiens, UniProt Q12866)
Procedure, shortened: as §1

MKNK2 = MKNK2 (Homo sapiens, UniProt Q9HBH9)
Procedure, shortened: as §1

MYLK2 = MYLK2 (Homo sapiens, UniProt Q9H1R3)
Procedure, shortened: as §1

MYO3A = MYO3A (Homo sapiens, UniProt Q8NEV4)
Procedure, shortened: as §1

NDR2 = target: T6, NDR2 (Homo sapiens, UniProt Q9Y2H1)
T6 construct: gene STK38L
Procedure, shortened: as §1

PDPK1 = PDPK1 (Homo sapiens, UniProt O15530)
Procedure, shortened: as §1

PIK3CA(H1047L) = PIK3CA(H1047L) (Homo sapiens, UniProt P42336, H1047L)
Procedure, shortened: as §1

PIP5K1A = PIP5K1A (Homo sapiens, UniProt Q99755)
Procedure, shortened: as §1

RIPK4 = RIPK4 (Homo sapiens, UniProt P57078)
Procedure, shortened: as §1

SGK2 = SGK2 (Homo sapiens, UniProt Q9HBY8)
Procedure, shortened: as §1

SGK3 = SGK3 (Homo sapiens, UniProt Q96BR1)
Procedure, shortened: as §1

p38-delta = target: T7, p38-delta (Homo sapiens, UniProt O15264)
T7 construct: gene MAPK13
Procedure, shortened: as §1

T4 sequence (P27361 whole entry): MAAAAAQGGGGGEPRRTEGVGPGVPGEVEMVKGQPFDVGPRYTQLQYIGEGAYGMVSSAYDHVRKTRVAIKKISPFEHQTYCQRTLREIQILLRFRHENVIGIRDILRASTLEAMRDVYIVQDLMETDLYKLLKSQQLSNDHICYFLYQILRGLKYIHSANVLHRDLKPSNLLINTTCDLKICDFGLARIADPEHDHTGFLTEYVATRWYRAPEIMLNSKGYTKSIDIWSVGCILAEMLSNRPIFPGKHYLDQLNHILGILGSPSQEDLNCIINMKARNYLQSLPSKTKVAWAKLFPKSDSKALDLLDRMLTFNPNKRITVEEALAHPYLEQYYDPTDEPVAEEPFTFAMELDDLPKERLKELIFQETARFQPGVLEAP
Chain of CSNK2A2 (P19784 whole entry): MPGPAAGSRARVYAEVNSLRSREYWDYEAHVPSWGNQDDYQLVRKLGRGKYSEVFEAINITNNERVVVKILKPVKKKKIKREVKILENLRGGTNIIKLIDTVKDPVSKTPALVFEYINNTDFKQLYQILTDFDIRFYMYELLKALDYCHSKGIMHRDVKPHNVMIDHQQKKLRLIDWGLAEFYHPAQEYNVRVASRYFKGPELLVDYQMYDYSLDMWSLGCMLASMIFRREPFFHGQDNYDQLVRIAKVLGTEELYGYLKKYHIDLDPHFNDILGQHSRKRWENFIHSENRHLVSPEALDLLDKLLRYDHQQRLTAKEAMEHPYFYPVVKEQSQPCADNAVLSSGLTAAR
Chain of PIK3CA(H1047L) (P42336 whole entry H1047L): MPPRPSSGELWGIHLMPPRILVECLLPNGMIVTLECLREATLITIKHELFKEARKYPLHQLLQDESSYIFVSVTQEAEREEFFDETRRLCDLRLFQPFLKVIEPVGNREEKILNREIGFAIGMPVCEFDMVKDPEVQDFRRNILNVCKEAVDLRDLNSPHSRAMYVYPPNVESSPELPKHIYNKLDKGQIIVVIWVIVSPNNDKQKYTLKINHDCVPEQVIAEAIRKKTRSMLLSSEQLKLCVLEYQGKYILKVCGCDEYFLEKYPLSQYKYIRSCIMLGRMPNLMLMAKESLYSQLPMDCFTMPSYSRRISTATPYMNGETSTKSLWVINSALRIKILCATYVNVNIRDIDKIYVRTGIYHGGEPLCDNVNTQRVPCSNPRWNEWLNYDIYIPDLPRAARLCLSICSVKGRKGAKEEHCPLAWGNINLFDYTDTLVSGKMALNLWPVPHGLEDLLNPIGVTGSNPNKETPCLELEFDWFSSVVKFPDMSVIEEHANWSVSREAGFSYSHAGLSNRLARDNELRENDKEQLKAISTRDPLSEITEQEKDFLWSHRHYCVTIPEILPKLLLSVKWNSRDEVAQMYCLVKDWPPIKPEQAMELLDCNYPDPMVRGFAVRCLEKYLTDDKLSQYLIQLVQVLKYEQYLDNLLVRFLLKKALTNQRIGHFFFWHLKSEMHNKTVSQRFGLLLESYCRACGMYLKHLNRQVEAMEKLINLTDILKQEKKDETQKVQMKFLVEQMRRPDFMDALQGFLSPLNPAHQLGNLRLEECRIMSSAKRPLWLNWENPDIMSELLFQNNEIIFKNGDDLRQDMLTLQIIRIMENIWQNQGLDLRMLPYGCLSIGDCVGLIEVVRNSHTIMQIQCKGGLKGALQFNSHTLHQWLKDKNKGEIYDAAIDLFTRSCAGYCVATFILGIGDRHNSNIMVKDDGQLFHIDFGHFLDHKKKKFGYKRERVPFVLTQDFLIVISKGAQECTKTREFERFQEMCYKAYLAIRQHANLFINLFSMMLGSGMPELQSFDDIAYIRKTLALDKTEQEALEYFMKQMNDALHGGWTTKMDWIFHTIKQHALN
Chain of MARK1 (Q9P0L2 whole entry): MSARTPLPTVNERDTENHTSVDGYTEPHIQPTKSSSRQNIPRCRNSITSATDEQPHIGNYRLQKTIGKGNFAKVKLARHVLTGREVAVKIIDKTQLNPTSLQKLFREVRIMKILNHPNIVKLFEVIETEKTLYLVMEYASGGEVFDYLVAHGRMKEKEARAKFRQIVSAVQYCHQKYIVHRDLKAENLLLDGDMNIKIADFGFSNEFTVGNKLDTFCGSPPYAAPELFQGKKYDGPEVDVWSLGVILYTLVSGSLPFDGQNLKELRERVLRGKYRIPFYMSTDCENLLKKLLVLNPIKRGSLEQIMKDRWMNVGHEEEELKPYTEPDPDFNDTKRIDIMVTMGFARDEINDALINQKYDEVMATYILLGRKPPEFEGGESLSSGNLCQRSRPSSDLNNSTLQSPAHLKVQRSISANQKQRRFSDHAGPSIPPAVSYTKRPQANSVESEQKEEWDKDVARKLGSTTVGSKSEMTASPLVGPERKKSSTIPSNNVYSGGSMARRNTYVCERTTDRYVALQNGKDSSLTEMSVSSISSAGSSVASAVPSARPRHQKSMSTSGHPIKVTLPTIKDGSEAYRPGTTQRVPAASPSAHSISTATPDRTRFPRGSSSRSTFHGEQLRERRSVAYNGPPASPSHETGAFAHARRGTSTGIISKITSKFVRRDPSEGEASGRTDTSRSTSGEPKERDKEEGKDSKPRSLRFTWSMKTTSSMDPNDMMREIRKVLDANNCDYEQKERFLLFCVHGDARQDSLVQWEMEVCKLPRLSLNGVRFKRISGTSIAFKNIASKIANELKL
Chain of MKNK2 (Q9HBH9 whole entry): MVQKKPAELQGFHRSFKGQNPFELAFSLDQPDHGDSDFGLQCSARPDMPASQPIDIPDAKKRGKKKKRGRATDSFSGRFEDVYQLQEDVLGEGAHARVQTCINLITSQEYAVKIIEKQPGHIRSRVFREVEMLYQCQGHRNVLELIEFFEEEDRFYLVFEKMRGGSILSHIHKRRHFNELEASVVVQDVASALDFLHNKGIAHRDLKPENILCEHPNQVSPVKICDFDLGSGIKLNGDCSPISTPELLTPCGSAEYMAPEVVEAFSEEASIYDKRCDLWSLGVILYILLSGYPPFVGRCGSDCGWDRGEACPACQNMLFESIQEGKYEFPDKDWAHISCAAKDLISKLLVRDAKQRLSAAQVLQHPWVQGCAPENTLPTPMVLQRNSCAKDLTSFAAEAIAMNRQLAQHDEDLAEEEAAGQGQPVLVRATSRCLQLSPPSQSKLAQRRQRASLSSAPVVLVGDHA
Chain of INSRR (P14616 whole entry): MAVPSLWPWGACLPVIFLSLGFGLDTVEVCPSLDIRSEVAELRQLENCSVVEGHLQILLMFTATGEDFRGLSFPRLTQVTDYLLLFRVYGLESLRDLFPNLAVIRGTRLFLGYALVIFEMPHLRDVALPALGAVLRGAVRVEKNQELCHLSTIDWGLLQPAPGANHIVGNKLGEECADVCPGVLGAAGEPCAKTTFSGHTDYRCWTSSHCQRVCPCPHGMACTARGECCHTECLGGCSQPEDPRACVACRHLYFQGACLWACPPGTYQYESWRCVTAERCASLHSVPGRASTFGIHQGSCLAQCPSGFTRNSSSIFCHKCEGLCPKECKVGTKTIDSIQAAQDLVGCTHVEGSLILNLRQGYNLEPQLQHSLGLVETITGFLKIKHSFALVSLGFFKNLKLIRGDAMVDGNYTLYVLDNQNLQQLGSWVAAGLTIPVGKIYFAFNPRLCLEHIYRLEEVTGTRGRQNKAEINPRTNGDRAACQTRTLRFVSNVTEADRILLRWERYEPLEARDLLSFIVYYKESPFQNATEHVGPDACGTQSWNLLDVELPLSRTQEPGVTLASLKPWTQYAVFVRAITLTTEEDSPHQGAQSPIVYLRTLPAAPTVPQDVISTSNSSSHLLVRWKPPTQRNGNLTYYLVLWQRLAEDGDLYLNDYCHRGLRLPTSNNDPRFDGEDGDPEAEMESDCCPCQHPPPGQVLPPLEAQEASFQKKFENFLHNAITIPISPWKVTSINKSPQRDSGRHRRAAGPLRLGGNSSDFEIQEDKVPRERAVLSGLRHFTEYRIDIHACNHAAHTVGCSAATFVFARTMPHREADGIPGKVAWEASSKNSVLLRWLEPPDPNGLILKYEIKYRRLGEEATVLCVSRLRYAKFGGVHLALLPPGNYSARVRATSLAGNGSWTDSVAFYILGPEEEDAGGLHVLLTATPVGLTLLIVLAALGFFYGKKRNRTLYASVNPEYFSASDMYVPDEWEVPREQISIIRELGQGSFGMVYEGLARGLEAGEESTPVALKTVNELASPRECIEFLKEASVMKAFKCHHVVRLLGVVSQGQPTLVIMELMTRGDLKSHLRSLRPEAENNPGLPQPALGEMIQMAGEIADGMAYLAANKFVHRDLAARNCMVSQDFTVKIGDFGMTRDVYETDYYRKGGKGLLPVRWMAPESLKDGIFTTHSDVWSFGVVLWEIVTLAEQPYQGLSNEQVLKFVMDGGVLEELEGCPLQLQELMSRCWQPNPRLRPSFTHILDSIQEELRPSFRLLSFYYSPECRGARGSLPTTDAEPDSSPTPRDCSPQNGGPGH
Chain of PIP5K1A (Q99755 whole entry): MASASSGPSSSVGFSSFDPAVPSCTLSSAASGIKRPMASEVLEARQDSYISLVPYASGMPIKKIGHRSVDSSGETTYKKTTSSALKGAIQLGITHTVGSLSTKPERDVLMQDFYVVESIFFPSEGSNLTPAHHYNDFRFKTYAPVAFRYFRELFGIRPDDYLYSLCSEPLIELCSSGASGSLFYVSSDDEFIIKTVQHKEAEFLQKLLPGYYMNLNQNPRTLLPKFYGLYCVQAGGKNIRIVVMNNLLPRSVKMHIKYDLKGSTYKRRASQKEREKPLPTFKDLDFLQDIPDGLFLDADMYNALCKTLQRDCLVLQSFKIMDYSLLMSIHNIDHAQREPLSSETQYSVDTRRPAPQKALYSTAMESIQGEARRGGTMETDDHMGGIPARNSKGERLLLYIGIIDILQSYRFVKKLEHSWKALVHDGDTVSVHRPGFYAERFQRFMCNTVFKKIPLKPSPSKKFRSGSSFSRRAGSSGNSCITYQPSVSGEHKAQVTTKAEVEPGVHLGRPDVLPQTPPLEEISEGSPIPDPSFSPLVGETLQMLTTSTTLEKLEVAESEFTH

## C=CC(=O)Nc1cc(-n2c(=O)ccc3cnc4ccc(-n5cccn5)cc4c32)ccc1C [CHMFL-BTK-11]
[1]
  remaining binding at 1 µM: 100%
ANKK1
  remaining binding at 1 µM: 81%
CDK4-cyclinD3
  remaining binding at 1 µM: 100%
CLK3
  remaining binding at 1 µM: 100%
CSNK2A2
  remaining binding at 1 µM: 52%
CTK
  remaining binding at 1 µM: 65%
DDR2
  remaining binding at 1 µM: 99%
EPHB4
  remaining binding at 1 µM: 100%
ERK1
  remaining binding at 1 µM: 100%
FGFR3(G697C)
  remaining binding at 1 µM: 100%
INSRR
  remaining binding at 1 µM: 100%
LKB1
  remaining binding at 1 µM: 91%
MARK1
  remaining binding at 1 µM: 82%
MERTK
  remaining binding at 1 µM: 100%
MKNK2
  remaining binding at 1 µM: 98%
MYLK2
  remaining binding at 1 µM: 100%
MYO3A
  remaining binding at 1 µM: 100%
NDR2
  remaining binding at 1 µM: 99%
PDPK1
  remaining binding at 1 µM: 90%
PIK3CA(H1047L)
  remaining binding at 1 µM: 85%
PIP5K1A
  remaining binding at 1 µM: 100%
RIPK4
  remaining binding at 1 µM: 100%
SGK2
  remaining binding at 1 µM: 85%
SGK3
  remaining binding at 1 µM: 86%
p38-delta
  remaining binding at 1 µM: 96%
